Test results published in patent US6156700A, “3-(1,2-Benzisothiazol- and isoxazol-5-yl)-2,4(1H,3H)-pyrimidinedione or thione and 3-(1,2-benzisothiazol- and isoxazol-5-yl)-4(3H)-pyrimidinone or thione herbicidal agents” (American Cyanmid Company, priority 1998, dated 2000).

Assays:
[1] = test system: Velvetleaf, Abutilon theophrasti; assay: Preemergence herbicidal evaluation, ABUTH; assay type: in vivo, Medic.; conditions: 0.2500 kg/ha
Description: (§1) Results of herbicide evaluation are expressed on a rating scale (0-9). The scale is based upon a visual observation of plant stand, vigor, malformation, size, chlorosis and overall plant appearance as compared with a control.
(§2) The preemergence herbicidal activity of the test compounds of the present invention is exemplified by the following tests in which the seeds of a variety of monocotyledonous and dicotyledonous plants are separately mixed with potting soil and planted on top of approximately one inch of soil in separate pint cups. After planting, the cups are sprayed with the selected aqueous acetone solution containing test compound in sufficient quantity to provide the equivalent of about 0.0156 to 0.500 kg per hectare of test compound per cup. The treated cups are then placed on greenhouse benches, watered and cared for in accordance with conventional greenhouse procedures. From four to five weeks after treatment, the tests are terminated and each cup is examined and rated according to the rating system provided in Example 185.
(§3) The compounds evaluated are reported by compound number given in Example 185.

[2] = test system: Barnyardgrass, Echinochloa crus-galli; assay: Postemergence herbicidal evaluation, ECHCG; assay type: in vivo, (L.) Beau; conditions: 0.0630 kg/ha
How it was run: (§4)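 Plants were raised for roughly two weeks, then treated by spraying at 40 psi with test compound dispersed in 50/50 acetone/water with 0.5% TWEEN 20, giving about 0.0157 to 0.500 kg/ha. After four to five weeks in the greenhouse they were scored 0–9 against a control.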

[3] = test system: Morningglory, Ivyleaf, Ipomoea hederacea; assay: Postemergence herbicidal evaluation, IPOHE; assay type: in vivo, (L.) Jacq.; conditions: 0.0630 kg/ha
How it was run: as §4

Corn, Field, Zea mays [4] = assay: Postemergence herbicidal evaluation, ZEAMX; assay type: in vivo, L.; conditions: 0.0630 kg/ha
How it was run: as §4

[5] = test system: Soybean, Williams, Glycine max; assay: Postemergence herbicidal evaluation, GLXMAW; assay type: in vivo, (L.) Merr. cv Williams; conditions: 0.0630 kg/ha
How it was run: as §4

Corn, Field, Zea mays [6] = assay: Preemergence herbicidal evaluation, ZEAMX; assay type: in vivo, L.; conditions: 0.2500 kg/ha
Description: as §1, §2, §3

[7] = test system: Ragweed, Common, Ambrosia artemisifolia; assay: Postemergence herbicidal evaluation, AMBEL; assay type: in vivo, L.; conditions: 0.0630 kg/ha
How it was run: as §4

[8] = test system: Foxtail, Green, Setaria viridis; assay: Postemergence herbicidal evaluation, SETVI; assay type: in vivo, (L.) Beau; conditions: 0.0630 kg/ha
How it was run: as §4

[9] = test system: Barnyardgrass, Echinochloa crus-galli; assay: Preemergence herbicidal evaluation, ECHCG; assay type: in vivo, (L.) Beau; conditions: 0.2500 kg/ha
Description: as §1, §2, §3

Galium, Galium aparine [10] = assay: Postemergence herbicidal evaluation, GALAP; assay type: in vivo; conditions: 0.0630 kg/ha
How it was run: as §4

[11] = test system: Morningglory, Ivyleaf, Ipomoea hederacea; assay: Preemergence herbicidal evaluation, IPOHE; assay type: in vivo, (L.) Jacq.; conditions: 0.2500 kg/ha
Description: as §1, §2, §3

[12] = test system: Lambsquarters, Common, Chenopodium album; assay: Preemergence herbicidal evaluation, CHEAL; assay type: in vivo, L.; conditions: 0.2500 kg/ha
Description: as §1, §2, §3

[13] = test system: Ragweed, Common, Ambrosia artemisifolia; assay: Preemergence herbicidal evaluation, AMBEL; assay type: in vivo, L.; conditions: 0.2500 kg/ha
Description: as §1, §2, §3

[14] = test system: Soybean, Williams, Glycine max; assay: Preemergence herbicidal evaluation, GLXMAW; assay type: in vivo, (L.) Merr. cv Williams; conditions: 0.2500 kg/ha
Description: as §1, §2, §3

Galium, Galium aparine [15] = assay: Preemergence herbicidal evaluation, GALAP; assay type: in vivo; conditions: 0.2500 kg/ha
Description: as §1, §2, §3

[16] = test system: Wheat, Winter, cv Riband, Triticum aestivum; assay: Postemergence herbicidal evaluation, TRZAWR; assay type: in vivo; conditions: 0.0630 kg/ha
How it was run: as §4

[17] = test system: Velvetleaf, Abutilon theophrasti; assay: Postemergence herbicidal evaluation, ABUTH; assay type: in vivo, Medic.; conditions: 0.0630 kg/ha
How it was run: as §4

[18] = test system: Rice, Tebonnet, Oryza sativa; assay: Preemergence herbicidal evaluation, ORYSAT; assay type: in vivo, (L.) Tebonnet; conditions: 0.2500 kg/ha
Description: as §1, §2, §3

[19] = test system: Foxtail, Green, Setaria viridis; assay: Preemergence herbicidal evaluation, SETVI; assay type: in vivo, (L.) Beau; conditions: 0.2500 kg/ha
Description: as §1, §2, §3

[20] = test system: Rice, Tebonnet, Oryza sativa; assay: Postemergence herbicidal evaluation, ORYSAT; assay type: in vivo, (L.) Tebonnet; conditions: 0.0630 kg/ha
How it was run: as §4

[21] = test system: Sicklepod, Cassia obtusifolia; assay: Preemergence herbicidal evaluation, CASOB; assay type: in vivo, L.; conditions: 0.2500 kg/ha
Description: as §1, §2, §3

[22] = test system: Wheat, Winter, cv Riband, Triticum aestivum; assay: Preemergence herbicidal evaluation, TRZAWR; assay type: in vivo; conditions: 0.2500 kg/ha
Description: as §1, §2, §3

[23] = test system: Lambsquarters, Common, Chenopodium album; assay: Postemergence herbicidal evaluation, CHEAL; assay type: in vivo, L.; conditions: 0.0630 kg/ha
How it was run: as §4

[24] = test system: Sicklepod, Cassia obtusifolia; assay: Postemergence herbicidal evaluation, CASOB; assay type: in vivo, L.; conditions: 0.0630 kg/ha
How it was run: as §4

| SMILES | herbicide rating (0-9) [1] | herbicide rating (0-9) [2] | herbicide rating (0-9) [3] | herbicide rating (0-9) (Corn, Field, Zea mays [4]) | herbicide rating (0-9) [5] | herbicide rating (0-9) (Corn, Field, Zea mays [6]) | herbicide rating (0-9) [7] | herbicide rating (0-9) [8] | herbicide rating (0-9) [9] | herbicide rating (0-9) (Galium, Galium aparine [10]) | herbicide rating (0-9) [11] | herbicide rating (0-9) [12] | herbicide rating (0-9) [13] | herbicide rating (0-9) [14] | herbicide rating (0-9) (Galium, Galium aparine [15]) | herbicide rating (0-9) [16] | herbicide rating (0-9) [17] | herbicide rating (0-9) [18] | herbicide rating (0-9) [19] | herbicide rating (0-9) [20] | further results |
| --- | --- | --- | --- | --- | --- | --- | --- | --- | --- | --- | --- | --- | --- | --- | --- | --- | --- | --- | --- | --- | --- |
| COc1c(C)cc(C)cc1-c1nsc2ccc(-n3c(=O)cc(C(F)(F)F)n(C)c3=O)cc12 [Compound 18, 3-[3-(2-Methoxy-3,5-xylyl)-1,2-benzisothiazol-5-yl]-1-methyl-6-(trifluoromethyl)-2,4(1H,3H)-pyrimidinedione] | 9.0 | 4.0 | 9.0 | 5.0 | 4.0 | 3.0 | 6.0 | 5.0 | 5.0 | 5.0 | 4.0 | 9.0 | 9.0 | 2.0 | 1.0 | 2.5 | 9.0 | 0.0 | 9.0 | 2.0 | herbicide rating (0-9) [21]: 4.0; herbicide rating (0-9) [22]: 0.0; herbicide rating (0-9) [23]: 9.0 |
| COC(=O)C(C)Oc1c(C)cc(C)cc1-c1nsc2ccc(-n3c(=O)cc(C(F)(F)F)n(C)c3=O)cc12 (centres unmarked) [Compound 27, Methyl 2-{{6-{5-[3,6-dihydro-3-methyl-2,6-dioxo-4-(trifluoromethyl)-1(2H)-pyrimidinyl]-1,2-benzisothiazol-3-yl}-2,4-xylyl}oxy}propionate] | 9.0 | 7.0 | 9.0 | 7.0 | 7.0 | 4.0 | 9.0 | 7.0 | 7.0 | 9.0 | 6.0 | 9.0 | 9.0 | 9.0 | 2.0 | 8.5 | 9.0 | 2.0 | 9.0 | 4.5 | herbicide rating (0-9) [24]: 4.0; herbicide rating (0-9) [21]: 9.0; herbicide rating (0-9) [22]: 5.0; herbicide rating (0-9) [23]: 9.0 |
